# Assay results reported in patent US20250041262A1, “COMPOSITIONS FOR THE TREATMENT OF FGFR3-RELATED COGNITIVE DEFICITS WITH A CATECHIN” (INSTITUT NATIONAL DE LA SANTÉ ET DE LA RECHERCHE MÉDICALE, priority 2021, published 2025).
# Experiments:
# [1] = system: Fgfr3^N534K/+ mice (hypochondroplasia mouse model); assay: Novel object location (NOL), spatial memory, HCH mouse model; format: in vivo
# Procedure: 4 months old Fgfr3^N534K/+ mice and Fgfr3^A385E/+ mice received daily subcutaneous administration of (−)-epicatechin (0.15 mg/kg) or vehicle (HcL 3.5 mM, DMSO 2%) for at least seven days. For habituation and testing NOR and NOL, injection was performed 1 hour before testing phase. Timing of injection for the different tests: NOL at 7 days, NOR at 14 days, TST: at 22 days and FST at 24 days. For the novel object location task, all procedures were identical to the novel object recognition task except that during the testing phase, rather than presenting a novel object, mice encountered both familiar objects, with one object located in a different place in the arena. The time and frequency of exploration of the novel/relocated object is measured as an index of memory. Behavior was scored on videos by two observers blind to treatment and the total exploration time of the objects was quantified in the testing phases. To confirm the direct implication of brain FGFR3 in cognitive disorders observed in Fgfr3^N534K/+ mice, we decided to treat mice with (−)-epicatechin bottle treatment. The animals were treated with bottle (−)-epicatechin (3 mg/L) during 4 weeks before behavioural tests.
# [2] = system: Fgfr3^N534K/+ mice (hypochondroplasia mouse model); assay: Novel object recognition (NOR), episodic memory, HCH mouse model; format: in vivo
# Procedure: (§1) 4 months old Fgfr3^N534K/+ mice and Fgfr3^A385E/+ mice received daily subcutaneous administration of (−)-epicatechin (0.15 mg/kg) or vehicle (HcL 3.5 mM, DMSO 2%) for at least seven days. For habituation and testing NOR and NOL, injection was performed 1 hour before testing phase. Timing of injection for the different tests: NOL at 7 days, NOR at 14 days, TST: at 22 days and FST at 24 days.
# (§2) We used a modified version of the NOR task as described in Glatigny et al., 2019. Mice were transported a short distance from the holding mouse facility to the testing room in their home cages and left undisturbed for at least one hour before the beginning of the test. The testing room was lit with two 60-W light bulbs and behavior sessions were recorded with a camera above the testing arena (grey plastic box (60×40×32 cm)). […] The objects elicited equal levels of exploration as determined in pilot experiments and training phase. […]
# (§3) The following behaviors were considered as exploration of the objects: sniffing, licking, or touching the object with the nose or with the front legs or directing the nose to the object at a distance≤1 cm. Investigation was not scored if the mouse was on top of the object or completely immobile. The discrimination index was calculated as (time spent exploring the new object-time spent exploring the familiar object)/(total time spent exploring both objects). […]
# [3] = system: Fgfr3^A385E/+ mice (CAN mouse model); assay: Novel object recognition (NOR), CAN mouse model; format: in vivo; conditions: subcutaneous injections for 7 days at least; 4-month-old mice
# Procedure: as §1, §2, §3
# [4] = system: Fgfr3^A385E/+ mice (CAN mouse model); assay: Forced swim test (FST), CAN mouse model; format: in vivo; conditions: subcutaneous injections for 7 days at least; 4-month-old mice
# Procedure: (§4) 4 months old Fgfr3^N534K/+ mice and Fgfr3^A385E/+ mice received daily subcutaneous administration of (−)-epicatechin (0.15 mg/kg) or vehicle (HcL 3.5 mM, DMSO 2%) for at least seven days. For habituation and testing NOR and NOL, injection was performed 1 hour before testing phase. Timing of injection for the different tests: NOL at 7 days, NOR at 14 days, TST: at 22 days and FST at 24 days. This test is based on a similar observation than the TST. Each mouse is placed in a cylinder (height: 25 cm and diameter: 10 cm) filled with water (23-25° C.). Mice were tested for 5 min, and the time spent immobile (behavioral despair) was quantified.
# [5] = system: Fgfr3^N534K/+ mice (hypochondroplasia mouse model); assay: Tail suspension test (TST), HCH mouse model; format: in vivo; conditions: bottle treatment 3 mg/L, 4 weeks; adult mice
# Procedure: This test is based on the observation that rodents, after initial escape-oriented movements, develop an immobile posture when placed in an inescapable stressful situation. Each mouse is hung in an uncontrollable fashion by their tail at above 25 cm from the floor. Mice were tested for 5 min, and the time spent immobile was quantified. To confirm the direct implication of brain FGFR3 in cognitive disorders observed in Fgfr3^N534K/+ mice, we decided to treat mice with (−)-epicatechin bottle treatment. The animals were treated with bottle (−)-epicatechin (3 mg/L) during 4 weeks before behavioural tests.
# [6] = system: Fgfr3^N534K/+ mice (hypochondroplasia mouse model); assay: Forced swim test (FST), HCH mouse model; format: in vivo; conditions: adult mice
# Procedure: as §4, with “quantified. To confirm the direct implication of brain FGFR3 in cognitive disorders observed in Fgfr3^N534K/+ mice, we decided to treat mice with (−)-epicatechin bottle treatment. The animals were treated with bottle (−)-epicatechin (3 mg/L) during 4 weeks before behavioural tests.” for “quantified.”
# [7] = system: Fgfr3^N534K/+ mice (hypochondroplasia mouse model); assay: Morris water maze (MWM), spatial memory, HCH mouse model; format: in vivo; conditions: bottle treatment 3 mg/L, 4 weeks; adult mice
# Procedure: The Morris water maze (MWM) is a test of spatial learning for mice that relies on distal cues to navigate from a start location to locate a submerged escape platform. Spatial learning is assessed across repeated trials during 8 days and reference memory is determined by location of the platform area. To confirm the direct implication of brain FGFR3 in cognitive disorders observed in Fgfr3^N534K/+ mice, we decided to treat mice with (−)-epicatechin bottle treatment. The animals were treated with bottle (−)-epicatechin (3 mg/L) during 4 weeks before behavioural tests.
# [8] = system: Fgfr3^N534K/+ mice (hypochondroplasia mouse model); assay: Contextual fear conditioning (CFC), associative memory, HCH mouse model; format: in vivo; conditions: bottle treatment 3 mg/L, 4 weeks; adult mice
# Source text: We performed on 4-month-old male mice a test related to the hippocampus associative memory (one-trial contextual fear conditioning, CFC). This test allows us to understand the ability of mice to remember an event associated with memory integration. During this behavorial test, we assess the freezing time of the mice, the mutant mice baseline was similar to control littermates during the training phase (p=0,2303). […] To confirm the direct implication of brain FGFR3 in cognitive disorders observed in Fgfr3^N534K/+ mice, we decided to treat mice with (−)-epicatechin bottle treatment. The animals were treated with bottle (−)-epicatechin (3 mg/L) during 4 weeks before behavioural tests.
# [9] = system: Fgfr3^N534K/+ mice (hypochondroplasia mouse model); assay: Bar beam, locomotion and fine coordination, HCH mouse model; format: in vivo; conditions: bottle treatment 3 mg/L, 4 weeks; adult mice
# Source text: The bar beam is a test to measure fine motor coordination and balance in mice by assessing if the mice stay upright and walk across an elevated narrow beam to a safe platform. This test takes place over 2 consecutive days and we measured the time it takes for the mouse to traverse the beam and the maximum distance done To confirm the direct implication of brain FGFR3 in cognitive disorders observed in Fgfr3^N534K/+ mice, we decided to treat mice with (−)-epicatechin bottle treatment. The animals were treated with bottle (−)-epicatechin (3 mg/L) during 4 weeks before behavioural tests.
# [10] = system: Fgfr3^Y367C/+ mouse model; conditions: cited from earlier work
# FGFR3 = FGFR3 (Homo sapiens, UniProt P22607); conditions: reason for selection; no test described; cited from earlier work
# [11] = bottle treatment 3 mg/L, 4 weeks, adult mice
# [12] = subcutaneous injection, in vivo and/or in vitro
# FGFR3, sequence (P22607 23-806): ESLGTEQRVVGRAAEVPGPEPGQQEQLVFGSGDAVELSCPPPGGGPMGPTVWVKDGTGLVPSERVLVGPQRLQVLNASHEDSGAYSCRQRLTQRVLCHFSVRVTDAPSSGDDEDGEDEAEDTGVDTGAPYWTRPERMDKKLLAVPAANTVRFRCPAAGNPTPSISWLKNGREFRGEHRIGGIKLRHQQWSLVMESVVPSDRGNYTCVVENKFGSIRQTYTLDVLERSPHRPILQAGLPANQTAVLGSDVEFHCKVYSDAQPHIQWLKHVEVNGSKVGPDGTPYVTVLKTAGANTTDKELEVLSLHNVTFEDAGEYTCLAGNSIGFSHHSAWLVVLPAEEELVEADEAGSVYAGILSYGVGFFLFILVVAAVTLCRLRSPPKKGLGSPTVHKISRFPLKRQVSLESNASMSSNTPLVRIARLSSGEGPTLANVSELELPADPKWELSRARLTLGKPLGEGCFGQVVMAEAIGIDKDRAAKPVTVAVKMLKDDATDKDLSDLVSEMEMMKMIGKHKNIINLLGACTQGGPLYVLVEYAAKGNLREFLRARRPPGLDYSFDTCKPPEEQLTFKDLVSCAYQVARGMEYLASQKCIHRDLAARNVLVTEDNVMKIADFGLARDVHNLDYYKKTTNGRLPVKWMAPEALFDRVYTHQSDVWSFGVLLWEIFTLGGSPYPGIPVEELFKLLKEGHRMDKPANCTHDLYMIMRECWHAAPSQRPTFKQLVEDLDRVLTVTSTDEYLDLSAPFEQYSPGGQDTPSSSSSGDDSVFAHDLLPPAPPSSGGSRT
smiles,measurement,setting,value
"Oc1cc(O)c2c(c1)O[C@H](c1ccc(O)c(O)c1)[C@H](O)C2 [(−)-epicatechin, (2R,3R)-2-(3,4-dihydroxyphenyl)-3,4-dihydro-2H-chromene-3,5,7-triol]",spatial memory deficits (NOL),[1]; [11],rescue
same,"spatial memory deficits (NOL), exploration of relocated object","[1]; daily subcutaneous 0.15 mg/kg, at least seven days, 4 months old male mice, vs control littermates p=0,9538",sufficient to restore
same,episodic memory deficits (NOR),[2]; [11],rescue
same,"episodic memory deficits (NOR), exploration of novel object","[2]; daily subcutaneous 0.15 mg/kg, at least seven days, 4 months old male mice, vs control littermates p=0,8697",sufficient to restore
same,memory deficits in the NOR paradigm,[3],reversed the memory deficits
same,coping strategy to an inescapable stress (FST),[4],reestablished the coping strategy
same,antidepressant effect (TST),[5],rescue
same,antidepressant effect (FST),"[6]; bottle treatment 3 mg/L, 4 weeks",rescue
same,antidepressant effect,"[6]; subcutaneous injection, FST and TST of FIG. 1",rescue
same,spatial memory deficits (Morrys Water Maze),[7],rescue
same,associative memory deficits (CFC),[8],rescue
same,locomotion and coordination fine (Bar beam),[9],rescue
same,efficacy in skeletal anomalies,[10]; FGFR3 related Achondroplasia mouse model (Martin et al 2021),showed the efficacy
same,functional activation of the FGFR3 downstream signalling pathway,[10]; [12],sufficient to abolish or eliminating
same,impairment of the ciliogenesis,[10]; [12],restore
same,binding specificity for FGFR3,FGFR3,highest binding specificity
